Results taken from US8058243B2, “Method for treating a brain cancer with ifenprodil” (HSC Research and Development Limited Partnership, priority 2006, dated 2011).
Like-named read-outs stand apart in the source and are kept apart here.

Tested on: murine neural precursor cells (neurosphere cultures)
Assay: HTS of LOPAC library against secondary neurosphere cultures, MTT proliferation assay at 3 μM, day 7 (z score, P value)
Assay type: cell-based, mouse
[1] = LOPAC library screen, 3 μM, MTT, neurosphere cultures
[2] = LOPAC screen, neurosphere MTT proliferation, 3 μM, day 7
[3] = yes/no: significantly inhibited neurosphere proliferation (P<0.01) in primary screen
[4] = LOPAC library screen at 3 μM, secondary neurosphere cultures, MTT
[5] = LOPAC primary screen, neurosphere MTT proliferation, 3 μM, day 7
[6] = yes = significantly inhibited neurosphere proliferation (P<0.01) in the primary screen
[7] = yes/no: significantly inhibited neurosphere proliferation in the primary screen
[8] = LOPAC library screen, 3 μM, MTT, secondary neurosphere cultures, day 7
[9] = yes/no: significantly inhibited neurosphere proliferation (P<0.01) in the primary screen
[10] = primary LOPAC screen, 3 μM, MTT, neurosphere proliferation
[11] = yes/no: significantly inhibited neurosphere proliferation in primary screen
[12] = LOPAC library screen at 3 μM, MTT, secondary neurosphere cultures, screened in singlets

O=[N+]([O-])c1ccc(O[C@@H]2O[C@H](CO)[C@@H](O)[C@H](O)[C@H]2F)c([N+](=O)[O-])c1 [2,4-Dinitrophenyl 2-fluoro-2-deoxy-beta-D-glucopyranoside]
Z Score [1]: 0.772 | Z score [2]: 0.772 | Activity [3]: no

Nc1cc(=O)[nH]c(N)n1 [2,6-Diamino-4-pyrimidinone]
Z Score [4]: −1.072 | Z score [2]: −1.072 | Activity [3]: no

NC(=O)COc1c(F)cc(SCCNS(=O)(=O)c2ccccc2)cc1F [2,6-Difluoro-4-[2-(phenylsulfonylamino)ethylthio]phenoxyacetamide]
Z Score: −0.4983 | Z score [5]: −0.498 | Activity [6]: no

Br.Br.N=C(N)SCCN [2-(2-Aminoethyl)isothiourea dihydrobromide]
Z Score (168 h, 3 µM): −1.251 | Z score (168 h, 3 µM): −1.251 | Activity [7]: no

C[N+](C)(C)CCC(=O)c1cccc2ccccc12.[I-] [2-(alpha-Naphthoyl)ethyltrimethylammonium iodide]
Z Score (168 h, 3 µM): −6.762 | Z score (168 h, 3 µM): −6.762 | Activity [6]: yes

O=C[C@H](Cl)[C@@H](O)[C@H](O)[C@H](O)CO [2-Chloro-2-deoxy-D-glucose]
Z Score [8]: −2.364 | Z score [5]: −2.364 | Activity [6]: yes

Nc1nc(Cl)nc2c1ncn2[C@@H]1O[C@H](COP(=O)([O-])OP(=O)([O-])OP(=O)([O-])[O-])[C@@H](O)[C@H]1O.[Na+].[Na+].[Na+].[Na+] [2-Chloroadenosine triphosphate tetrasodium]
Z Score (168 h, 3 µM): 1.149 | Z score (168 h, 3 µM): 1.149 | Activity [3]: no

Nc1nc(Cl)nc2c1ncn2[C@@H]1O[C@H](CO)[C@@H](O)[C@H]1O [2-Chloroadenosine]
Z Score (168 h, 3 µM): −0.396 | Z score (168 h, 3 µM): −0.396 | Activity [3]: no

NCC(O)(CS(=O)(=O)O)c1ccc(Cl)cc1 (centres unmarked) [2-Hydroxysaclofen]
Z Score [8]: −1.624 | Z score [5]: −1.624 | Activity [6]: no

COc1ccc2[nH]c(I)c(CCNC(C)=O)c2c1 [2-Iodomelatonin]
Z Score: −0.1348 | Z score [5]: −0.135 | Activity [3]: no

Cc1[nH]c2ccc(O)cc2c1CCN.O=C(O)/C=C\C(=O)O [2-Methyl-5-hydroxytryptamine maleate]
Z Score: 0.5718 | Z score [5]: 0.572 | Activity [6]: no

Nc1nc(Nc2ccccc2)nc2c1ncn2[C@@H]1O[C@H](CO)[C@@H](O)[C@H]1O [2-Phenylaminoadenosine]
Z Score (168 h, 3 µM): 0.5728 | Z score (168 h, 3 µM): 0.573 | Activity [9]: no

COc1cc2c(cc1O)CC[C@@H]1[C@@H]2CC[C@]2(C)[C@@H](O)CC[C@@H]12 [2-methoxyestradiol]
Z Score [4]: −0.9833 | Z score [5]: −0.983 | Activity [6]: no

Cc1cn([C@H]2C=C[C@@H](CO)O2)c(=O)[nH]c1=O [2′,3′-didehydro-3′-deoxythymidine]
Z Score [8]: −1.878 | Z score [2]: −1.878 | Activity [3]: no

Nc1ccn([C@H]2CC[C@@H](CO)O2)c(=O)n1 [2′,3′-dideoxycytidine]
Z Score [8]: −1.367 | Z score [5]: −1.367 | Activity [9]: no

O=c1oc(Cl)c(Cl)c2ccccc12 [3,4-Dichloroisocoumarin]
Z Score (168 h, 3 µM): −1.12 | Z score (168 h, 3 µM): −1.120 | Activity [3]: no

O=C(O)Cc1ccc(O)c(O)c1 [3,4-Dihydroxyphenylacetic acid]
Z Score: −0.5832 | Z score [2]: −0.583 | Activity [3]: no

O=[N+]([O-])c1cc(O)c(O)c([N+](=O)[O-])c1 [3,5-Dinitrocatechol]
Z Score: −0.5294 | Z score [2]: −0.529 | Activity [3]: no

C#CCn1c(=O)c2c(ncn2C)n(C)c1=O [3,7-Dimethyl-I-propargylxanthine]
Z Score: 1.454 | Z score [2]: 1.454 | Activity [3]: no

Fc1ccc(C(OCCCc2c[nH]cn2)c2ccc(F)cc2)cc1 [3-(1H-Imidazol-4-yl)propyl di(p-fluorophenyl)methyl ether]
Z score [5]: −0.015 | Activity [3]: no

NCCCS(=O)(=O)O.[Na] [3-Amino-1-propanesulfonic acid sodium]
Z Score [8]: −6.691 | Z score [5]: −6.691 | Activity [9]: yes

N#CCCN.N#CCCN.O=C(O)/C=C/C(=O)O [3-Aminopropionitrile fumarate]
Z Score: 1.234 | Z score [10]: 1.234 | Activity [7]: no

NCCCP(=O)(O)O [3-Aminopropylphosphonic acid]
Z Score: −2.331 | Z score [5]: −2.331 | Activity [9]: yes

O=[N+]([O-])c1cccc2c(Br)n[nH]c12 [3-Bromo-7-nitroindazole]
Z Score (168 h, 3 µM): −1.68 | Z score (168 h, 3 µM): −1.680 | Activity [7]: no

Cl.Cl.NNCc1cccc(O)c1 [3-Hydroxybenzylhydrazine dihydrochloride]
Z Score: −0.4866 | Z score [5]: −0.487 | Activity [3]: no

N[C@@H](Cc1ccc(O)c(I)c1)C(=O)O [3-Iodo-L-tyrosine]
Z Score (168 h, 3 µM): −0.04844 | Z score (168 h, 3 µM): −0.048 | Activity [3]: no

CC(C)Cn1c(=O)n(C)c(=O)c2[nH]cnc21 [3-Isobutyl-1-methylxanthine]
Z Score (168 h, 3 µM): −0.774 | Z score (168 h, 3 µM): −0.774 | Activity [3]: no

COc1ccc2c(c1)[C@@]13CCCC[C@H]1[C@@H](C2)NCC3.Cl [3-Methoxy-morphanin hydrochloride]
Z Score: −7.714 | Z score [5]: −7.714 | Activity [9]: yes

Cc1nnc2ccc(-c3cccc(C(F)(F)F)c3)nn12 [3-Methyl-6-(3-[trifluoromethyl]phenyl)-1,2,4-triazolo[4,3-b]pyridazine]
Z Score: 0.09095 | Z score [5]: 0.091 | Activity [6]: no

Cl.N=c1c[n+](N2CCOCC2)[n-]o1 [3-Morpholinosydnonimine hydrochloride]
Z Score (168 h, 3 µM): −1.324 | Z score (168 h, 3 µM): −1.324 | Activity [6]: no

O=C(O)CC[N+](=O)[O-] [3-Nitropropionic acid]
Z Score: −0.5631 | Z score [5]: −0.563 | Activity [6]: no

Cl.NCC#Cc1ccccc1 [3-Phenylpropargylamine hydrochloride]
Z Score: −2.043 | Z score [5]: −2.043 | Activity [11]: no

CN1C2CCC1CC(OC(=O)c1cc(Cl)cc(Cl)c1)C2 (centres unmarked) [3-Tropanyl-3,5-dichlorobenzoate]
Z Score: −9.272 | Z score [5]: −9.272 | Activity [9]: yes

CN1[C@@H]2CC[C@H]1CC(OC(=O)c1c[nH]c3ccccc13)C2.Cl (some centres unmarked) [3-Tropanyl-indole-3-carboxylate hydrochloride]
Z Score: −1.528 | Z score [10]: −1.528 | Activity [7]: no

NC(=O)c1cccc(N)c1 [3-aminobenzamide]
Z Score: −1.034 | Z score [5]: −1.034 | Activity [11]: no

Nc1nccc2c1ncn2[C@@H]1O[C@H](CO)[C@@H](O)[C@H]1O [3-deazaadenosine]
Z Score [12]: 1.77 | Z score [2]: 1.770 | Activity [3]: no

CCCn1c(=O)[nH]c(=O)c2[nH]cnc21 [3-n-Propylxanthine]
Z Score [4]: −1.094 | Z score [5]: −1.094 | Activity [6]: no

N/C(=N\C(=O)c1nc(Cl)c(N)nc1N)NCc1ccc(Cl)c(Cl)c1 [3′,4′-Dichlorobenzamil]
Z Score: −2.581 | Z score [5]: −2.581 | Activity [9]: yes

Cc1cn([C@H]2C[C@H](N=[N+]=[N-])[C@@H](CO)O2)c(=O)[nH]c1=O [3′-Azido-3′-deoxythymidine]
Activity: yes | Z Score [8]: −5.023 | Z score [5]: −5.023

Cl.NCCc1ccc(S(=O)(=O)F)cc1 [4-(2-Aminoethyl)benzenesulfonyl fluoride hydrochloride]
Z Score: 0.3634 | Z score [10]: 0.363 | Activity [7]: no

Nc1ccc2c3c(cccc13)C(=O)NC2=O [4-Amino-1,8-naphthalimide]
Z Score [12]: 1.875 | Z score [5]: 1.875 | Activity [11]: no

Cl.Cl.N=C(N)c1ccc(N)cc1 [4-Aminobenzamidine dihydrochloride]
Z Score: −1.287 | Z score [5]: −1.287 | Activity [6]: no

Nc1ccncc1 [4-Aminopyridine]
Z Score [8]: −1.516 | Z score [5]: −1.516 | Activity [11]: no

C[C@]12CCC(=O)C(O)=C1CC[C@@H]1[C@@H]2CC[C@]2(C)C(=O)CC[C@@H]12 [4-Androsten-4-ol-3,17-dione]
Z Score: 0.1944 | Z score [10]: 0.194 | Activity [7]: no

C[C@]12CCC(=O)C=C1CC[C@@H]1[C@@H]2CC[C@]2(C)C(=O)CC[C@@H]12 [4-Androstene-3,17-dione]
Z Score: −0.6917 | Z score [10]: −0.692 | Activity [7]: no

O=C(O)c1cc[c]([Hg][Cl])cc1 [4-Chloromercuribenzoic acid]
Z Score: −0.03193 | Z score [2]: −0.032 | Activity [3]: no

C[N+]1(C)CCC(OC(=O)C(c2ccccc2)c2ccccc2)CC1.[I-] [4-DAMP methiodide]
Z Score [1]: 0.3311 | Z score [2]: 0.331 | Activity [3]: no

Cl.O=C(OC1CCN(CCCl)CC1)C(c1ccccc1)c1ccccc1 [4-Diphenylacetoxy-N-(2-chloroethyl)piperidine hydrochloride]
Z Score: 0.8645 | Z score [5]: 0.864 | Activity [3]: no

COc1cc(CC(=O)O)ccc1O [4-Hydroxy-3-methoxyphenylacetic acid]
Z Score: −0.5673 | Z score [5]: −0.567 | Activity [3]: no

NNC(=O)c1ccc(O)cc1 [4-Hydroxybenzhydrazide]
Z Score: −0.7888 | Z score [5]: −0.789 | Activity [3]: no
